Legend:
[1] = Absolute bioavailability in human; format: ADME, organism-based; conditions: in vivo
[2] = caco-2
[3] = clinical; conditions: human
[4] = Octanol-water partition coefficient, log P of the compound; format: physicochemical
[5] = Dissociation constant, pKa of the compound; format: physicochemical
[6] = human

Structure (SMILES) | bioavailability [1] | Daq [2] | Papp [3] | logP ([4]; read-out: logP) | pKa [5] | logP [4] | permeability [6]
CC1(C)S[C@@H]2[C@H](NC(=O)[C@H](N)c3ccc(O)cc3)C(=O)N2[C@H]1C(=O)O [AMOXICILLIN] | 45% | 6.8 ×10⁻⁶ cm2/s | 30 ×10⁻⁶ cm/s | – | – | – | –
N[C@@H](Cc1ccc(O)c(O)c1)C(=O)O [LEVODOPA] | 100% | 9 ×10⁻⁶ cm2/s | 340 ×10⁻⁶ cm/s | -3 | 2.21 | – | –
O=C(N[C@H](CO)[C@H](O)c1ccc([N+](=O)[O-])cc1)C(Cl)Cl [CHLORAMPHENICOL] | 82% | – | – | – | – | – | –
CC(C)[C@H](N)C(=O)OCCOCn1cnc2c(=O)[nH]c(N)nc21 [VALACYCLOVIR] | 80% | 7.2 ×10⁻⁶ cm2/s | 166 ×10⁻⁶ cm/s | -1.04 | 7.4 | – | –
O=C1OC2(c3ccc(O)cc3Oc3cc(O)ccc32)c2ccccc21 [FLUORESCEIN] | 99% | – | – | – | – | – | –
CC(C)(C)NCC(O)COc1cccc2c1CC(O)C(O)C2 (stereo not given) [NADOLOL] | 30% | – | – | – | – | – | –
CCOC(=O)[C@H](CCc1ccccc1)N[C@@H](C)C(=O)N1CCC[C@H]1C(=O)O | 51% | 6.7 ×10⁻⁶ cm2/s | 157 ×10⁻⁶ cm/s | -1.39 | 2.92 | – | –
CC(C)NCC(O)COc1ccc(CC(N)=O)cc1 (stereo not given) [ATENOLOL] | – | 7.9 ×10⁻⁶ cm2/s | – | – | – | – | –
CC1COc2c(N3CCN(C)CC3)c(F)cc3c(=O)c(C(=O)O)cn1c23 (stereo not given) [OFLOXACIN] | 90% | – | – | – | – | – | –
CC(C)NCC(O)c1ccc(NS(C)(=O)=O)cc1 (stereo not given) [SOTALOL] | 95% | – | – | – | – | – | –
CNC(=C[N+](=O)[O-])NCCSCc1ccc(CN(C)C)o1 [RANITIDINE] | 50% | 7.3 ×10⁻⁶ cm2/s | 27.3 ×10⁻⁶ cm/s | – | 2.11 | – | –
C[C@H]1O[C@@H](O[C@H]2[C@@H](O)C[C@H](O[C@H]3[C@@H](O)C[C@H](O[C@H]4CC[C@@]5(C)[C@H](CC[C@@H]6[C@@H]5C[C@@H](O)[C@]5(C)[C@@H](C7=CC(=O)OC7)CC[C@]65O)C4)O[C@@H]3C)O[C@@H]2C)C[C@H](O)[C@@H]1O [DIGOXIN] | 70% | – | – | – | – | – | –
NS(=O)(=O)c1cc2c(cc1Cl)NCNS2(=O)=O [HYDROCHLOROTHIAZIDE] | 55% | 7.5 ×10⁻⁶ cm2/s | 4 ×10⁻⁶ cm/s | -0.03 | – | – | –
CCCc1cc(=O)[nH]c(=S)[nH]1 [PROPYLTHIOURACIL] | 85% | – | – | – | – | – | –
CC(C)Cc1ccc(C(C)C(=O)O)cc1 (stereo not given) [IBUPROFEN] | 85% | – | – | – | – | – | –
CCCCc1nc(Cl)c(CO)n1Cc1ccc(-c2ccccc2-c2nn[nH]n2)cc1 [LOSARTAN] | 50% | 6.4 ×10⁻⁶ cm2/s | 114 ×10⁻⁶ cm/s | 3.74 | 2.95 | – | –
COc1cc(Cc2cnc(N)nc2N)cc(OC)c1OC [TRIMETHOPRIM] | 98% | – | – | – | – | – | –
O=C(O)Cc1ccccc1Nc1c(Cl)cccc1Cl [DICLOFENAC] | 54% | – | – | – | – | – | –
NC(N)=O [UREA] | – | 15.5 ×10⁻⁶ cm2/s | 140 ×10⁻⁶ cm/s | -1.64 | – | – | –
COc1ccc2c(c1)c(CC(=O)O)c(C)n2C(=O)c1ccc(Cl)cc1 [INDOMETHACIN] | 99% | – | – | – | – | – | –
N=C(N)NCCCNC(=O)[C@@H]1CCCCN1C(=O)[C@@H](CC1CCCCC1)NCC(=O)O [INOGATRAN] | 5% | – | – | -0.6 | 1.6 | – | –
C[C@H](N[C@@H](CCc1ccccc1)C(=O)O)C(=O)N1CCC[C@H]1C(=O)O [ENALAPRILAT ANHYDROUS] | 8% | 7 ×10⁻⁶ cm2/s | 10 ×10⁻⁶ cm/s | – | 3.2 | – | –
NS(=O)(=O)c1cc(C(=O)O)c(NCc2ccco2)cc1Cl [FUROSEMIDE] | – | 7.1 ×10⁻⁶ cm2/s | – | – | – | – | –
OC[C@H]1OC(O)[C@H](O)[C@@H](O)[C@@H]1O (stereo not given in full) [DEXTROSE] | 100% | 9.4 ×10⁻⁶ cm2/s | 560 ×10⁻⁶ cm/s | -0.67 | – | – | –
CC(C)n1c(/C=C/C(O)CC(O)CC(=O)O)c(-c2ccc(F)cc2)c2ccccc21 (stereo not given) [FLUVASTATIN] | 95% | 6.5 ×10⁻⁶ cm2/s | 238 ×10⁻⁶ cm/s | – | – | – | –
CN1CC(=O)NC1=N [CREATININE] | 80% | 11.6 ×10⁻⁶ cm2/s | 29 ×10⁻⁶ cm/s | – | 4.66 | -3 | –
COc1ccc2cc([C@H](C)C(=O)O)ccc2c1 [NAPROXEN] | – | 8.4 ×10⁻⁶ cm2/s | – | – | – | – | –
O=c1c(O[C@@H]2O[C@H](CO)[C@@H](O)[C@H](O)[C@H]2O)c(-c2ccc(O[C@@H]3O[C@H](CO)[C@@H](O)[C@H](O)[C@H]3O)c(O)c2)oc2cc(O)cc(O)c12 | 60% | 6.1 ×10⁻⁶ cm2/s | 890 ×10⁻⁶ cm/s | 3.24 | 6.9 | – | –

Structure (SMILES) | bioavailability [1] | Daq [2] | Papp [3] | logP ([4]; read-out: logP) | pKa [5] | logP [4] | permeability [6]
N=C(N)NC(=O)c1nc(Cl)c(N)nc1N [AMILORIDE] | 50% | 8.4 ×10⁻⁶ cm2/s | 163 ×10⁻⁶ cm/s | -0.26 | – | – | –
CC1=C(/C=C/C(C)=C/C=C/C(C)=C/C(=O)O)C(C)(C)CCC1 [TRETINOIN] | 90% | 7.5 ×10⁻⁶ cm2/s | 99 ×10⁻⁶ cm/s | – | – | – | –
O=C(O)c1ccccc1O [SALICYLIC ACID] | 100% | 10.6 ×10⁻⁶ cm2/s | 267 ×10⁻⁶ cm/s | – | – | – | –
CC(C(=O)O)c1cccc(C(=O)c2ccccc2)c1 (stereo not given) [KETOPROFEN] | – | 8 ×10⁻⁶ cm2/s | 840 ×10⁻⁶ cm/s | 3.16 | – | – | –
CN/C(=N/CCSCc1nc[nH]c1C)NC#N [CIMETIDINE] | 60% | 8.1 ×10⁻⁶ cm2/s | 26 ×10⁻⁶ cm/s | – | 6.76 | – | –
COc1cc([C@@H]2c3cc4c(cc3[C@@H](O[C@@H]3O[C@@H]5CO[C@@H](C)O[C@H]5[C@H](O)[C@H]3O)[C@H]3COC(=O)[C@H]23)OCO4)cc(OC)c1O [ETOPOSIDE] | 52% | – | – | – | – | – | –
NCCCC[C@H](N[C@@H](CCc1ccccc1)C(=O)O)C(=O)N1CCC[C@H]1C(=O)O [LISINOPRIL ANHYDROUS] | 27% | – | – | -2.86 | 3.16 | – | –
CCC[C@@H]1C[C@@H](C(=O)N[C@@H]([C@H]2O[C@H](SC)[C@H](O)[C@@H](O)[C@H]2O)[C@@H](C)O)N(C)C1 [LINCOMYCIN] | 25% | – | – | – | – | – | –
NC(=O)N1c2ccccc2C=Cc2ccccc21 [CARBAMAZEPINE] | 90% | 8.3 ×10⁻⁶ cm2/s | 430 ×10⁻⁶ cm/s | – | – | – | –
CC1=C(C(=O)O)N2C(=O)[C@@H](NC(=O)[C@H](N)c3ccccc3)[C@H]2SC1 [CEPHALEXIN ANHYDROUS] | – | 7 ×10⁻⁶ cm2/s | – | – | – | – | –
NC(CO)C(=O)NNCc1ccc(O)c(O)c1O (stereo not given) [BENSERAZIDE] | 70% | 8 ×10⁻⁶ cm2/s | 290 ×10⁻⁶ cm/s | -1.78 | 6.19 | – | –
CN1C(C(=O)Nc2ccccn2)=C(O)c2ccccc2S1(=O)=O [PIROXICAM] | 100% | 7.1 ×10⁻⁶ cm2/s | 665 ×10⁻⁶ cm/s | – | – | – | –
CC(C)NCC(O)COc1cccc2ccccc12 (stereo not given) [PROPRANOLOL] | 100% | 8 ×10⁻⁶ cm2/s | – | – | – | – | –
COC1=CC(=O)C[C@@H](C)[C@]12Oc1c(Cl)c(OC)cc(OC)c1C2=O [GRISEOFULVIN] | 95% | 6.9 ×10⁻⁶ cm2/s | 114 ×10⁻⁶ cm/s | – | – | – | –
Cn1c(=O)c2c(ncn2C)n(C)c1=O [CAFFEINE] | 98% | – | – | – | – | – | –
COCCc1ccc(OCC(O)CNC(C)C)cc1 (stereo not given) [METOPROLOL] | – | 7.9 ×10⁻⁶ cm2/s | 90 ×10⁻⁶ cm/s | – | – | – | –
N[C@@H](Cc1ccccc1)C(=O)O [PHENYLALANINE] | 100% | 9.8 ×10⁻⁶ cm2/s | 336 ×10⁻⁶ cm/s | – | 2.2 | – | –
C[S+]([O-])CCCCN=C=S (stereo not given) [SULFORAPHANE] | 74% | 9.5 ×10⁻⁶ cm2/s | – | 1.68 | – | – | 18.7 ×10⁻⁴ cm/s
Cc1cc(=O)n(-c2ccccc2)n1C [ANTIPYRINE] | 99% | 9.2 ×10⁻⁶ cm2/s | – | – | 1.3 | – | 2.07 ×10⁻⁴ cm/s
Cc1cc(NC(=O)C2=C(O)c3ccccc3S(=O)(=O)N2C)no1 [ISOXICAM] | 100% | – | – | – | – | – | –
CC(C)(C)NCC(O)c1cc(O)cc(O)c1 (stereo not given) [TERBUTALINE] | – | 8.5 ×10⁻⁶ cm2/s | 30 ×10⁻⁶ cm/s | -0.08 | 8.67 | – | –
CC(C)C[C@H](N)C(=O)O [LEUCINE] | 100% | 10.9 ×10⁻⁶ cm2/s | 620 ×10⁻⁶ cm/s | – | 2.38 | – | –
C[C@](N)(Cc1ccc(O)c(O)c1)C(=O)O [METHYLDOPA] | 26% | 8.8 ×10⁻⁶ cm2/s | 10 ×10⁻⁶ cm/s | -3 | 2.21 | – | –
CNCCCN1c2ccccc2CCc2ccccc21 [DESIPRAMINE] | 70% | 7.9 ×10⁻⁶ cm2/s | 440 ×10⁻⁶ cm/s | – | – | – | –
CC(=O)Nc1ccc(O)cc1 [ACETAMINOPHEN] | 85% | 10.2 ×10⁻⁶ cm2/s | – | – | 9.63 | – | 1.76 ×10⁻⁴ cm/s
COc1ccc(CCN(C)CCCC(C#N)(c2ccc(OC)c(OC)c2)C(C)C)cc1OC (stereo not given) | 84% | – | – | – | – | – | –
O [WATER] | – | 26.7 ×10⁻⁶ cm2/s | 140 ×10⁻⁶ cm/s | – | – | – | –

Reference: ChEMBL document CHEMBL1158536, “How well can the Caco-2/Madin-Darby canine kidney models predict effective human jejunal permeability?” (J Med Chem, 2010)
